Assays:
Type in all cases: biochemical
PLK3 = PLK3 (Homo sapiens, UniProt Q9H4B4); test: PLK TR-FRET peptide assay, PLK3; conditions: GST-PLK3, 15 min reaction, read-out: Plk3 IC50
PLK2 = PLK2 (Homo sapiens, UniProt Q9NYY3); test: PLK TR-FRET peptide assay, PLK2; conditions: for IC50: PLK TR-FRET peptide assay, GST-PLK2, 60 min reaction, read-out: Plk2 IC50
PLK1 = PLK1 (Homo sapiens, UniProt P53350); test: PLK TR-FRET peptide assay, PLK1; conditions: GST-PLK1, 60 min reaction
Sequence of PLK1 (P53350 whole entry): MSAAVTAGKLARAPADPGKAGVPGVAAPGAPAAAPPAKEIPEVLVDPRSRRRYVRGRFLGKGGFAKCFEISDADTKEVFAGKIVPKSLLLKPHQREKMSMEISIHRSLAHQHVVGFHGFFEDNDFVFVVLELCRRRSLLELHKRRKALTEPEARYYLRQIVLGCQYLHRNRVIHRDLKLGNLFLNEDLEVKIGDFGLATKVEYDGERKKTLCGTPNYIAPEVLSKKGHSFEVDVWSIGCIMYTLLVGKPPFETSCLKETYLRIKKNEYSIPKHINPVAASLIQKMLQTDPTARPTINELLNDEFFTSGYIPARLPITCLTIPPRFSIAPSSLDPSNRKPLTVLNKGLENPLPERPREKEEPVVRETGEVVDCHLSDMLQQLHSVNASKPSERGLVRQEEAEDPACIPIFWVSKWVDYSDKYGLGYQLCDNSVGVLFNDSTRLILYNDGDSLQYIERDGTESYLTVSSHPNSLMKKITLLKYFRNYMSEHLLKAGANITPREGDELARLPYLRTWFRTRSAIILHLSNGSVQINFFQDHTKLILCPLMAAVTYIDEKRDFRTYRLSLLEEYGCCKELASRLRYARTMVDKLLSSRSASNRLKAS

Sequence of PLK3 (Q9H4B4 whole entry): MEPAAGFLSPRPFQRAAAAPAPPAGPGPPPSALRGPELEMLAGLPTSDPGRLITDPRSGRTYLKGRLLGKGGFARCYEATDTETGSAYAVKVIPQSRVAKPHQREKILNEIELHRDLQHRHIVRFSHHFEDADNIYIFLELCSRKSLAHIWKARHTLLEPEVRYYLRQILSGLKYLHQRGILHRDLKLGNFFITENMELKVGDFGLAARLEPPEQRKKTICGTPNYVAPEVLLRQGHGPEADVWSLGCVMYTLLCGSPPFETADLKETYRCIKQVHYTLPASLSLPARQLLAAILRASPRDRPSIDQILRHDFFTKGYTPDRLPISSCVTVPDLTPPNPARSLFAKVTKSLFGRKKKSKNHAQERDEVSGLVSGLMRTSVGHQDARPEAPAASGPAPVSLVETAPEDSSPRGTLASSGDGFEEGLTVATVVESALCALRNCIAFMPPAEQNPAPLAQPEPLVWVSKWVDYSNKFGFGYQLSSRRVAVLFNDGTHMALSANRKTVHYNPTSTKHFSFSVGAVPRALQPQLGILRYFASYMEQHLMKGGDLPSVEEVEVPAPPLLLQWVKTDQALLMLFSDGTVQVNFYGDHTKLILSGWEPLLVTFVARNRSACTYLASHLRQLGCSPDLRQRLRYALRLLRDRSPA
Sequence of PLK2 (Q9NYY3 whole entry): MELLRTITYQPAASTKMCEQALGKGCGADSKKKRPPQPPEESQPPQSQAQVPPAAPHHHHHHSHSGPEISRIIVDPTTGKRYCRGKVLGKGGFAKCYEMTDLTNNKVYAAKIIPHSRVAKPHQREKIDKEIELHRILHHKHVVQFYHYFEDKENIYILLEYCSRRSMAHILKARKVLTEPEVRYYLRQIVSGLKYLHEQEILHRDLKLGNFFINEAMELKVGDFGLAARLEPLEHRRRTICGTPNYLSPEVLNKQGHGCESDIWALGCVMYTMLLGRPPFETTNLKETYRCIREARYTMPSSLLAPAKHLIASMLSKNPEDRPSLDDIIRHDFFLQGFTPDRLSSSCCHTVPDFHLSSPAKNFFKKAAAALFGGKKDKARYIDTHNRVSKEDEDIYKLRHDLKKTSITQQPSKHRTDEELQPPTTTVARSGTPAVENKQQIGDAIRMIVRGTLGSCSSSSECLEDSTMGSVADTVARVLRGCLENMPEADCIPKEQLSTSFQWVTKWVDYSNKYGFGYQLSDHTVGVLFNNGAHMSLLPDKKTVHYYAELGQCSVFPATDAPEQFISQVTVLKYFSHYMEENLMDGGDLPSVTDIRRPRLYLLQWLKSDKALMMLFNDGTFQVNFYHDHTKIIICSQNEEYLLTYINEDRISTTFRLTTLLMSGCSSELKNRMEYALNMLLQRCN

IC50 (PLK3)	IC50 (PLK2)	IC50 (PLK1)	relative PLK2 activity of the enantiomers (PLK2; compared with the opposite enantiomer)	Compound
10 to 50 µM	< 1 µM	1 to 10 µM		CC[C@@H]1C(=O)N(C)c2cnc(-c3c[nH]nc3-c3ccc(C(F)(F)F)cc3)nc2N1C(C)C [Example 167, (R)-7-ethyl-8-isopropyl-5-methyl-2-(3-(4-(trifluoromethyl)phenyl)-1H-pyrazol-4-yl)-7,8-dihydropteridin-6(5H)-one]
> 50 µM	10 to 50 µM	10 to 50 µM		CC[C@@H]1C(=O)N(C)c2cnc(-c3cncnc3-c3ccc(C(F)(F)F)cc3)nc2N1C(C)C [Example 168, (R)-7-ethyl-8-isopropyl-5-methyl-2-(4-(4-(trifluoromethyl)phenyl)pyrimidin-5-yl)-7,8-dihydropteridin-6(5H)-one]
> 50 µM	< 1 µM	10 to 50 µM		CC[C@@H]1C(=O)N(C)c2cnc(-n3ccnc3-c3ccc(C(F)(F)F)cc3)nc2N1C1CCC1 [Example 171, (R)-8-cyclobutyl-7-ethyl-5-methyl-2-(2-(4-(trifluoromethyl)phenyl)-1H-imidazol-1-yl)-7,8-dihydropteridin-6(5H)-one]
10 to 50 µM	< 1 µM	1 to 10 µM		CC[C@@H]1C(=O)N(C)c2cnc(-c3cnoc3-c3ccc(F)cc3)nc2N1C(C)C [Example 173, (R)-7-ethyl-2-(5-(4-fluorophenyl)isoxazol-4-yl)-8-isopropyl-5-methyl-7,8-dihydropteridin-6(5H)-one]
10 to 50 µM	1 to 10 µM	1 to 10 µM		CC[C@@H]1C(=O)N(C)c2cnc(-c3nccnc3-c3ccc(C(F)(F)F)cc3)nc2N1C(C)C [Example 175, (R)-7-ethyl-8-isopropyl-5-methyl-2-(3-(4-(trifluoromethyl)phenyl)pyrazin-2-yl)-7,8-dihydropteridin-6(5H)-one]
1 to 10 µM	< 1 µM	1 to 10 µM		CC[C@@H]1C(=O)N(C)c2cnc(-n3ccnc3-c3ccc(F)c(Cl)c3)nc2N1C(C)C [Example 186, (R)-2-(2-(3-chloro-4-fluorophenyl)-1H-imidazol-1-yl)-7-ethyl-8-isopropyl-5-methyl-7,8-dihydropteridin-6(5H)-one]
10 to 50 µM	10 to 50 µM	10 to 50 µM		CC[C@@H]1C(=O)N(C)c2cnc(-c3cnoc3-c3nccs3)nc2N1C(C)C [Example 187, (R)-7-ethyl-8-isopropyl-5-methyl-2-(5-(thiazol-2-yl)isoxazol-4-yl)-7,8-dihydropteridin-6(5H)-one]
10 to 50 µM	< 1 µM	1 to 10 µM		CC[C@@H]1C(=O)N(C)c2cnc(-n3ccnc3-c3ccc(F)c(F)c3)nc2N1C1CCOC1 (stereo partly drawn) [Example 191, (7R)-2-(2-(3,4-difluorophenyl)-1H-imidazol-1-yl)-7-ethyl-5-methyl-8-(tetrahydrofuran-3-yl)-7,8-dihydropteridin-6(5H)-one]
1 to 10 µM	1 to 10 µM	1 to 10 µM		CC[C@@H]1C(=O)N(C)c2cnc(-c3cncnc3-c3nccs3)nc2N1C(C)C [Example 197, (R)-7-ethyl-8-isopropyl-5-methyl-2-(4-(thiazol-2-yl)pyrimidin-5-yl)-7,8-dihydropteridin-6(5H)-one]
1 to 10 µM	< 1 µM	1 to 10 µM		CC[C@@H]1C(=O)N(C)c2cnc(-n3ccnc3-c3cc(Cl)cc(Cl)c3)nc2N1C1CCC1 [Example 198, (R)-8-cyclobutyl-2-(2-(3,5-dichlorophenyl)-1H-imidazol-1-yl)-7-ethyl-5-methyl-7,8-dihydropteridin-6(5H)-one]
> 50 µM	1 to 10 µM	10 to 50 µM		[2H]C([2H])([2H])N1C(=O)[C@H](C([2H])([2H])C([2H])([2H])[2H])N(C([2H])(C([2H])([2H])[2H])C([2H])([2H])[2H])c2nc(-n3ccnc3-c3ccc(F)cc3)ncc21 [Example 199, (S)-7-perdeuteroethyl-2-(2-(4-fluorophenyl)-1H-imidazol-1-yl)-8-perdeuteroisopropyl-5-trideuteromethyl-7,8-dihydropteridin-6(5H)-one]

Continued, compound first:

Compound	IC50 (PLK3)	IC50 (PLK2)	IC50 (PLK1)	relative PLK2 activity of the enantiomers (PLK2; compared with the opposite enantiomer)
[2H]C([2H])([2H])N1C(=O)C(C([2H])([2H])C([2H])([2H])[2H])N(C([2H])(C([2H])([2H])[2H])C([2H])([2H])[2H])c2nc(-n3ccnc3-c3ccc(F)c(F)c3)ncc21 (stereo not shown) [Example 169, 2-(2-(3,4-difluorophenyl)-1H-imidazol-1-yl)-7-perdeuteroethyl-8-perdeuteroisopropyl-5-trideuteromethyl-7,8-dihydropteridin-6(5H)-one]	10 to 50 µM	< 1 µM	1 to 10 µM	
[2H]C([2H])([2H])N1C(=O)C(C([2H])([2H])C([2H])([2H])[2H])N(C([2H])(C([2H])([2H])[2H])C([2H])([2H])[2H])c2nc(-n3ccnc3-c3ccc(OC(F)(F)F)cc3)ncc21 (stereo not shown) [Example 170, 7-perdeuteroethyl-8-perdeuteroisopropyl-5-trideuteromethyl-2-(2-(4-(trifluoromethoxy)phenyl)-1H-imidazol-1-yl)-7,8-dihydropteridin-6(5H)-one]	> 50 µM	< 1 µM	10 to 50 µM	
[2H]C([2H])([2H])N1C(=O)C(C([2H])([2H])C([2H])([2H])[2H])N(C([2H])(C([2H])([2H])[2H])C([2H])([2H])[2H])c2nc(-n3ccnc3-c3cccc(C(F)(F)F)c3)ncc21 (stereo not shown) [Example 172, 7-ethyl-8-isopropyl-5-methyl-2-(2-(3-(trifluoromethyl)phenyl)-1H-imidazol-1-yl)-7,8-dihydropteridin-6(5H)-one]	> 50 µM	< 1 µM	1 to 10 µM	
CC[C@@H]1C(=O)N(C)c2cnc(-n3ccnc3-c3cc(F)cc(C(F)(F)F)c3)nc2N1C1CCC1 [Example 174, (R)-8-cyclobutyl-7-ethyl-2-(2-(3-fluoro-5-(trifluoromethyl)phenyl)-1H-imidazol-1-yl)-5-methyl-7,8-dihydropteridin-6(5H)-one]	10 to 50 µM	< 1 µM	1 to 10 µM	
CC[C@@H]1C(=O)N(C)c2cnc(-c3nccnc3-c3ccc(F)cc3)nc2N1C(C)C [Example 177, (R)-7-ethyl-2-(3-(4-fluorophenyl)pyrazin-2-yl)-8-isopropyl-5-methyl-7,8-dihydropteridin-6(5H)-one]	1 to 10 µM	< 1 µM	1 to 10 µM	
[2H]C([2H])([2H])N1C(=O)[C@H](C([2H])([2H])C([2H])([2H])[2H])N(C([2H])(C([2H])([2H])[2H])C([2H])([2H])[2H])c2nc(-n3ccnc3-c3cc(F)cc(F)c3)ncc21 [Example 178, (S)-2-(2-(3,5-difluorophenyl)-1H-imidazol-1-yl)-7-perdeuteroethyl-8-perdeuteroisopropyl-5-trideuteromethyl-7,8-dihydropteridin-6(5H)-one]	> 50 µM	10 to 50 µM	> 50 µM	
[2H]C([2H])([2H])N1C(=O)[C@@H](C([2H])([2H])C([2H])([2H])[2H])N(C([2H])(C([2H])([2H])[2H])C([2H])([2H])[2H])c2nc(-n3ccnc3-c3cc(F)cc(F)c3)ncc21 [Example 179, (R)-2-(2-(3,5-difluorophenyl)-1H-imidazol-1-yl)-7-perdeuteroethyl-8-perdeuteroisopropyl-5-trideuteromethyl-7,8-dihydropteridin-6(5H)-one]	1 to 10 µM	< 1 µM	< 1 µM	
CC[C@@]12CCCN1c1nc(-n3ccnc3-c3cc(Cl)cc(Cl)c3)ncc1N(C)C2=O [Example 184, (S)-2-(2-(3,5-dichlorophenyl)-1H-imidazol-1-yl)-6a-ethyl-5-methyl-6a,7,8,9-tetrahydropyrrolo[2,1-h]pteridin-6(5H)-one]	10 to 50 µM	< 1 µM	10 to 50 µM	
CC[C@@H]1C(=O)N(C)c2cnc(-n3ccnc3-c3cc(Cl)cc(Cl)c3)nc2N1C(C)C [Example 185, (R)-2-(2-(3,5-dichlorophenyl)-1H-imidazol-1-yl)-7-ethyl-8-isopropyl-5-methyl-7,8-dihydropteridin-6(5H)-one]	1 to 10 µM	< 1 µM	1 to 10 µM	
CC[C@@]12CCCN1c1nc(-n3nccc3-c3ccccc3)ncc1N(C)C2=O [Example 193, (S)-6a-ethyl-5-methyl-2-(5-phenyl-1H-pyrazol-1-yl)-6a,7,8,9-tetrahydropyrrolo[2,1-h]pteridin-6(5H)-one]	1 to 10 µM	1 to 10 µM	1 to 10 µM	
CC[C@@H]1C(=O)N(C)c2cnc(-n3ccnc3-c3cccc(F)c3)nc2N1C1CC(F)(F)C1 [Example 194, (R)-8-(3,3-difluorocyclobutyl)-7-ethyl-2-(2-(3-fluorophenyl)-1H-imidazol-1-yl)-5-methyl-7,8-dihydropteridin-6(5H)-one]	10 to 50 µM	< 1 µM	< 1 µM	
CC[C@@H]1C(=O)N(C)c2cnc(-n3ccnc3-c3nccc4ccccc34)nc2N1C(C)C [Example 196, (R)-7-ethyl-8-isopropyl-2-(2-(isoquinolin-1-yl)-1H-imidazol-1-yl)-5-methyl-7,8-dihydropteridin-6(5H)-one]	> 50 µM	1 to 10 µM	10 to 50 µM	
[2H]C([2H])([2H])N1C(=O)[C@@H](C([2H])([2H])C([2H])([2H])[2H])N(C([2H])(C([2H])([2H])[2H])C([2H])([2H])[2H])c2nc(-n3ccnc3-c3ccc(F)cc3)ncc21 [Example 200, (R)-7-perdeuteroethyl-2-(2-(4-fluorophenyl)-1H-imidazol-1-yl)-8-perdeuteroisopropyl-5-trideuteromethyl-7,8-dihydropteridin-6(5H)-one]	1 to 10 µM	< 1 µM	1 to 10 µM	more active compound
